Source: PubChem BioAssay AID248 (DTP/NCI, 2004)
Where “and” joins values, the source holds several entries; their conditions need not be identical. Equal values may be shown once. Inconclusive results and toxic doses are left out. Cut-off read from the data, not from the text of the source: active = T/C of 150% or more; inactive = T/C below 125%.

Tested on: L1210 leukemia ip in BDF1 mice, survival T/C
Test: NCI In Vivo Anticancer Drug Screen. Data for tumor model L1210 Leukemia (intraperitoneal) in B6D2F1 (BDF1) mice
Conditions: endpoint: mean survival time, higher = longer survival
Procedure, shortened: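 Transplantable tumor model; survival measured in treated vs vehicle control mice. Value = treated/control.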

[1] = dose: 100.0 mg/kg/injection, schedule: Q01DX001 (ip), vehicle: saline with Tween-80
[2] = dose: 100.0 mg/kg/injection, schedule: Q04DX002 (ip), vehicle: saline with Tween-80
[3] = dose: 200.0 mg/kg/injection, schedule: Q01DX001 (ip), vehicle: saline with Tween-80
[4] = dose: 200.0 mg/kg/injection, schedule: Q04DX002 (ip), vehicle: saline with Tween-80
[5] = dose: 200.0 mg/kg/injection, schedule: Q04DX003 (ip), vehicle: saline with Tween-80
[6] = dose: 400.0 mg/kg/injection, schedule: Q01DX001 (ip), vehicle: saline with Tween-80
[7] = dose: 400.0 mg/kg/injection, schedule: Q04DX002 (ip), vehicle: saline with Tween-80
[8] = dose: 400.0 mg/kg/injection, schedule: Q04DX003 (ip), vehicle: saline with Tween-80
[9] = dose: 100.0 mg/kg/injection, schedule: Q01DX009 (ip), vehicle: saline with Tween-80
[10] = dose: 200.0 mg/kg/injection, schedule: Q01DX009 (ip), vehicle: saline with Tween-80
[11] = dose: 100.0 mg/kg/injection, schedule: Q01DX009 (ip), vehicle: Klucel (hydroxypropylcellulose) (HPC)
[12] = dose: 100.0 mg/kg/injection, schedule: Q04DX003 (ip), vehicle: Klucel (hydroxypropylcellulose) (HPC)
[13] = dose: 200.0 mg/kg/injection, schedule: Q01DX009 (ip), vehicle: Klucel (hydroxypropylcellulose) (HPC)
[14] = dose: 200.0 mg/kg/injection, schedule: Q04DX003 (ip), vehicle: Klucel (hydroxypropylcellulose) (HPC)
[15] = dose: 400.0 mg/kg/injection, schedule: Q01DX009 (ip), vehicle: Klucel (hydroxypropylcellulose) (HPC)
[16] = dose: 400.0 mg/kg/injection, schedule: Q04DX003 (ip), vehicle: Klucel (hydroxypropylcellulose) (HPC)
[17] = dose: 100.0 mg/kg/injection, schedule: Q01DX009 (ip), vehicle: saline
[18] = dose: 100.0 mg/kg/injection, schedule: Q04DX003 (ip), vehicle: saline
[19] = dose: 200.0 mg/kg/injection, schedule: Q01DX009 (ip), vehicle: saline
[20] = dose: 200.0 mg/kg/injection, schedule: Q04DX003 (ip), vehicle: saline
[21] = dose: 400.0 mg/kg/injection, schedule: Q01DX009 (ip), vehicle: saline
[22] = dose: 400.0 mg/kg/injection, schedule: Q04DX003 (ip), vehicle: saline
[23] = dose: 100.0 mg/kg/injection, schedule: Q01DX001 (ip), vehicle: saline

Measured: T/C

CCCCCCCCCCCCN1CCCN(CCCCCCCCCCCC)CC1
inactive: [1] 100 % of control | [2] 97 % of control and 106 % of control | dose: 100.0 mg/kg/injection, schedule: Q04DX003 (ip), vehicle: saline with Tween-80 94 % of control and 90 % of control | [3] 98 % of control | [4] 97 % of control and 106 % of control | [5] 103 % of control and 87 % of control | [6] 107 % of control | [7] 101 % of control and 92 % of control | [8] 90 % of control

CC(C)CC(NC(=O)c1ccccc1)C(N)=O (stereo not given)
inactive: [9] 90 % of control | [10] 90 % of control

CC1(C)C2CC3C(=CCCC3C#N)C1C2 (stereo not given)
inactive: [11] 105 % of control | [12] 97 % of control | [13] 97 % of control | [14] 95 % of control | [15] 103 % of control | [16] 92 % of control

NNC(=O)CCN1CC1
inactive: [12] 109 % of control | [14] 107 % of control | [16] 115 % of control

CC(C)c1ccc(C(c2ccc(C(C)C)cc2)c2ccc(C(C)C)cc2)cc1
inactive: [1] 104 % of control | [3] 91 % of control

Cc1c[n+]([O-])ccc1N=NN(C)c1ccccc1C
inactive: dose: 18.75 mg/kg/injection, schedule: Q04DX002 (ip), vehicle: saline with Tween-80 102 % of control | dose: 37.5 mg/kg/injection, schedule: Q04DX002 (ip), vehicle: saline with Tween-80 105 % of control | dose: 75.0 mg/kg/injection, schedule: Q04DX002 (ip), vehicle: saline with Tween-80 102 % of control | [4] 86 % of control

CCOC(=O)c1ccc(NC(=O)Nc2ccccc2OC)cc1
inactive: [1] 89 % of control | [9] 92 % of control | [2] 94 % of control and 87 % of control | [3] 92 % of control | [10] 95 % of control | [4] 87 % of control and 91 % of control | [5] 87 % of control | [6] 86 % of control | dose: 400.0 mg/kg/injection, schedule: Q01DX009 (ip), vehicle: saline with Tween-80 87 % of control | [7] 87 % of control | [8] 92 % of control

c1ccc(Nc2ccc(Nc3ccccc3)cc2)cc1
inactive: dose: 100.0 mg/kg/injection, schedule: Q01DX001 (ip), vehicle: Klucel (hydroxypropylcellulose) (HPC) 94 % of control | [17] 113 % of control | [18] 86 % of control | dose: 200.0 mg/kg/injection, schedule: Q01DX001 (ip), vehicle: Klucel (hydroxypropylcellulose) (HPC) 94 % of control | [19] 110 % of control | [20] 93 % of control | dose: 400.0 mg/kg/injection, schedule: Q01DX001 (ip), vehicle: Klucel (hydroxypropylcellulose) (HPC) 91 % of control | [21] 110 % of control | [22] 95 % of control

O=C1c2ccccc2C(=O)c2c(Nc3ccc(S(=O)(=O)N(CCO)CCO)cc3)ccc(O)c21
inactive: [23] 97 % of control | dose: 200.0 mg/kg/injection, schedule: Q01DX001 (ip), vehicle: saline 100 % of control

C/C=[N+](/[O-])CC
inactive: [17] 102 % of control | [18] 102 % of control | [19] 101 % of control | [20] 105 % of control | [21] 101 % of control | [22] 110 % of control

C=CCNC(=S)Nc1ccc(O)cc1
inactive: [11] 91 % of control | [13] 97 % of control | [15] 96 % of control

CCC(C)C1NC(=O)C(NC(=O)c2c3nc4c(C(=O)NC5C(=O)NC(C(C)CC)C(=O)N6CCCC6C(=O)N(C)CC(=O)N(C)C(C(C)C)C(=O)OC5C)cc([N+](=O)[O-])c(C)c4oc-3c(C)c(=O)c2N)C(C)OC(=O)C(C(C)C)N(C)C(=O)CN(C)C(=O)C2CCCN2C1=O (stereo not given)
inactive: dose: 75.0 micrograms/kg/injection, schedule: Q01DX009 (ip), vehicle: saline + alcohol 111 % of control | dose: 100.0 micrograms/kg/injection, schedule: Q01DX009 (ip), vehicle: saline + alcohol 112 % of control | dose: 200.0 micrograms/kg/injection, schedule: Q01DX009 (ip), vehicle: saline + alcohol 122 % of control | dose: 300.0 micrograms/kg/injection, schedule: Q04DX003 (ip), vehicle: saline + alcohol 107 % of control | dose: 400.0 micrograms/kg/injection, schedule: Q04DX003 (ip), vehicle: saline + alcohol 108 % of control | dose: 600.0 micrograms/kg/injection, schedule: Q04DX003 (ip), vehicle: saline + alcohol 119 % of control

CCN(CC)CCNC(c1ccccc1)C(Cl)(Cl)Cl (stereo not given)
inactive: [23] 100 % of control

C=C=C[P+](c1ccccc1)(c1ccccc1)c1ccccc1
inactive: dose: 5.0 mg/kg/injection, schedule: Q01DX001 (ip), vehicle: saline 104 % of control | dose: 10.0 mg/kg/injection, schedule: Q01DX001 (ip), vehicle: saline 98 % of control | dose: 20.0 mg/kg/injection, schedule: Q01DX001 (ip), vehicle: saline 101 % of control | dose: 40.0 mg/kg/injection, schedule: Q01DX001 (ip), vehicle: saline 124 % of control

CCCCCCCNC(C)=O
inactive: dose: 25.0 mg/kg/injection, schedule: Q01DX001 (ip), vehicle: saline 99 % of control | dose: 25.0 mg/kg/injection, schedule: Q01DX009 (ip), vehicle: saline 106 % of control | dose: 50.0 mg/kg/injection, schedule: Q01DX001 (ip), vehicle: saline 116 % of control | dose: 50.0 mg/kg/injection, schedule: Q01DX009 (ip), vehicle: saline 95 % of control | [1] 92 % of control | [23] 99 % of control

CCC(Cl)COP(=O)(OCC(Cl)CC)OC(C(C)C)P(=O)(OCC(Cl)CC)OCC(Cl)CC (stereo not given)
inactive: [12] 95 % of control | [14] 93 % of control | [16] 90 % of control

CCC(=O)NC
inactive: dose: 100.0 mg/kg/injection, schedule: Q01DX001 (ip), vehicle: acetone 100 % of control | dose: 100.0 mg/kg/injection, schedule: Q01DX009 (ip), vehicle: acetone 101 % of control | dose: 200.0 mg/kg/injection, schedule: Q01DX001 (ip), vehicle: acetone 100 % of control | dose: 200.0 mg/kg/injection, schedule: Q01DX009 (ip), vehicle: acetone 97 % of control | dose: 400.0 mg/kg/injection, schedule: Q01DX001 (ip), vehicle: acetone 100 % of control | dose: 400.0 mg/kg/injection, schedule: Q01DX009 (ip), vehicle: acetone 100 % of control | dose: 555.0 mg/kg/injection, schedule: Q01DX015 (ip), vehicle: water 102 % of control | dose: 833.0 mg/kg/injection, schedule: Q01DX015 (ip), vehicle: water 115 % of control | dose: 1000.0 mg/kg/injection, schedule: Q01DX001 (ip), vehicle: water 98 % of control | dose: 1500.0 mg/kg/injection, schedule: Q01DX001 (ip), vehicle: water 104 % of control | dose: 2000.0 mg/kg/injection, schedule: Q01DX001 (ip), vehicle: water 113 % of control

CN(C)CCN(C)CCN(C)CCN(C)C
inactive: [17] 95 % of control | [19] 100 % of control
